Data published in patent publication EP0486280A2, “Piperidinylcamphorsulfonyl oxytocin antagonists” (MERCK & CO. INC., priority 1990, dated 1992).

Target: T1, uterine OT receptors (Rattus norvegicus, UniProt P70536)
T1 construct: from tissue; host or cells: uterus of DES-treated rats, crude membranes
T1 sequence (P70536 1-388): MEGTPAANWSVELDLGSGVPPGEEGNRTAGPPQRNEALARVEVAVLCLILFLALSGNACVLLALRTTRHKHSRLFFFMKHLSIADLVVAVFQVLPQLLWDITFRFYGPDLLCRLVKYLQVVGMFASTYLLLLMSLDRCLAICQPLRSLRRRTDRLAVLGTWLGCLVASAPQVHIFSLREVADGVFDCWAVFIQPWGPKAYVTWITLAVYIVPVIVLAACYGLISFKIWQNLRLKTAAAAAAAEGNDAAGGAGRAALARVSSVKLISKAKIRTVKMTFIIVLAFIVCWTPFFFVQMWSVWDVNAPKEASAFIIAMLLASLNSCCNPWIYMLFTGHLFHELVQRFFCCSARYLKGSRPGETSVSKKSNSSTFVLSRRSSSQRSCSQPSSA
Test: saturation binding of [^3H]OT, crude membrane preparation of uteri
Set-up: species or system rats
Details: radioligand Kd from saturation binding assay; uterus
Procedure: The high affinity binding of [^3H] Oxytocin(OT)([tyrosyl, 3,5-[^3H]OT; 30-60 Ci/mmol; New England Nuclear. Boston, MA) to uterine OT receptors was based on an assay^* using a crude membrane preparation of uteri taken from diethylstilbestrol dipropionate (DES)-treated (0.3 mg/kg, ip; 18-24) rats. Competition studies were conducted at equilibrium (60 minutes; 22°C) using 1 nM[^3H]OT in the following assay buffer: 50 mM Tris-HCI, 5 mM MgCl2, and 0.1% BSA, pH 7.4. Nonspecific binding (10% of the total binding) was determined using 1 mM unlabeled OT and the binding reaction was terminated by filtration through glass fiber filters using a cell harvester (model 7019, Skatron, Inc., Sterling, VA).
1985 J. Clin. Endocrinol. Metab. 60:37.

Compound: CC[C@H](C)[C@@H]1NC(=O)[C@H](Cc2ccc(O)cc2)NC(=O)[C@@H](N)CSSC[C@@H](C(=O)N2CCC[C@H]2C(=O)N[C@@H](CC(C)C)C(=O)NCC(N)=O)NC(=O)[C@H](CC(N)=O)NC(=O)[C@H](CCC(N)=O)NC1=O [[^3H]OT]
- Kd: 0.7 nM
